Experimental data as given in US10414763B2 (CANCER RESEARCH TECHNOLOGY LIMITED, priority 2014, dated 2019).

biological target: T1, full-length human PKCι (Homo sapiens, UniProt P41743); assay: PKCι IC50 IMAP fluorescence polarisation assay, full-length enzyme, 150 μM ATP; type: biochemical; conditions: read-out: IC50 in IMAP assay against full length PKCi at 150 μM ATP
T1 construct: Recombinant, full-length human PKCι expressed in Sf21 insect cells is also commercially available; purchased EMD Millipore; host or cells: Sf21 insect cells (baculovirus)
T1 sequence (P41743 1-596): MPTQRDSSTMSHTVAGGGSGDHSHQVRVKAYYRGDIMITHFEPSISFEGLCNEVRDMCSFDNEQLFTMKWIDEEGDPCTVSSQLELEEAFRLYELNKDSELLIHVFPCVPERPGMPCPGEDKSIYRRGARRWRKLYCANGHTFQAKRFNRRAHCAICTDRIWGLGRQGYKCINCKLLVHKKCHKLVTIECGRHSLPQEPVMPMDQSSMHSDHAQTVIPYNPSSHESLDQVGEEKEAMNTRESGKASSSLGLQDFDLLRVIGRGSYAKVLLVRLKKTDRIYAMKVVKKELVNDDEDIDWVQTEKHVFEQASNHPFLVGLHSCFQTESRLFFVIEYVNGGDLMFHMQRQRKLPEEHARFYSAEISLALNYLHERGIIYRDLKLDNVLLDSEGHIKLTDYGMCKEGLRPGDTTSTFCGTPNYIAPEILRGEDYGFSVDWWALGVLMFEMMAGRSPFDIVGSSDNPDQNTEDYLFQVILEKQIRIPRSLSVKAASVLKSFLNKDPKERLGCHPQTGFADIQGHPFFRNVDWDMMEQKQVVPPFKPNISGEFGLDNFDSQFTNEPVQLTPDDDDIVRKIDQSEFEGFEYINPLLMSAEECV
Source text: Assays are based on the ability of PKCι to phosphorylate a commercially available peptide substrate in vitro. The peptide substrate is FAM-PKCε pseudopeptide derived peptide, and comprises the amino acid sequence 5FAM-ERMRPRKRQGSVRRRV-NH2. Recombinant, full-length human PKCι expressed in Sf21 insect cells is also commercially available. Recombinant, kinase-domain human PKCι is expressed and purified in-house.
The procedure below explains how dose response curves for inhibitors of PKCι are obtained. The screen described is for a 384 well format but the assay can be adapted to 1536 or other formats as required.
Compounds to be tested are dissolved in 100% DMSO. Compounds are diluted as required to give a final concentration of 4% DMSO (v/v) in the assay. 1 μl is plated into 384 well black low-binding flat bottomed assay plates which are used immediately. Dilutions and additions of compound to assay plates are carried out using Matrix WellMate® and Matrix PlateMate® Plus liquid handling systems.
On the day of the screen PKCι/substrate working solution, and ATP working solution, are prepared in buffer containing 20 mM tris-HCl pH7.5, 10 mM MgCl2, 0.01% Triton X100, 250 μM EGTA and 1 mM DTT. The final concentration of PKCι used varies depending on the batch of protein but is typically 15 pM. The final concentration of peptide substrate in the assay is 100 nM. ATP is used at a final concentration of 150 μM or 25 μM in the assays containing full-length or kinase-domain PKCι respectively, which corresponds to five times or equal to the KM^APP for ATP for each enzyme, respectively. The final buffer concentration in the assay is 18 mM tris-HCl pH7.5, 9 mM MgCl2, 0.009% Triton X100, 225 μM EGTA and 0.9 mM DTT. Relevant controls are included, namely no compound and no enzyme. 5 μl PKCι/substrate working solution at 30 pM and 200 nM, respectively, is added to the wells, followed by 4 μl ATP working solution at 375 μM or 62.5 μM for full-length or kinase-domain PKCι respectively, using a 16 channel Matrix pipette. The reaction is allowed to incubate for 60 minutes at room temperature, before the reaction is stopped and developed by the addition of 20 μl IMAP™ development reagent (Molecular Devices). IMAP development reagent consists of 0.25% (v/v) IMAP progressive binding reagent, 17% (v/v) IMAP progressive binding buffer A and 3% (v/v) IMAP progressive binding buffer B. The plates are then incubated for 2 hours at room temperature before being read using an appropriate plate reader, for example a Molecular Devices HT Analyst or a BMG Pherastar. Plates are read using a fluorescence polarisation protocol with excitation at 485 nm and emission at 530 nm, and dichroic mirror at 505 nm.
Percentage inhibition values are calculated from fluorescence polarisation values, using the no compound and no enzyme control values as 0% and 100% inhibition, respectively. IC50 determination is performed with ExcelFit software (IDBS) using curve fit 205. Z′ factors are determined for each plate tested and are all above 0.5.
Alternatively, compounds were tested for their ability to inhibit the kinase activity of recombinant human baculovirus-expressed PKCiota using the immobilized metal-ion affinity particle (IMAP®) fluorescence polarization detection system (Molecular Devices, Sunnyvale, Calif.). PKCiota/IMAP® substrate mixture (2×) was prepared in 1×IMAP assay buffer (Molecular Devices) containing 1 mM DTT so that the final assay concentrations were 15 pM PKCiota (EMD Millipore, Billerica, Mass.) and 100 nM 5-fluorescein-amidite (FAM)-PKC ? -pseudosubstrate (5-FAM-ERMRPRKRQGSVRRRV-NH2) (Molecular Devices). The 2× working solution was added at 5 μL/well into a 384-well black, non-binding, flat bottom assay plate (Corning, Corning, N.Y.). […]

| Structure (SMILES) | IC50 |
| --- | --- |
| FC(F)(F)c1cc2c(-c3nc(N4CCC[C@H]5CNC[C@H]54)c4c(C5CC5)cncc4n3)ccnc2[nH]1 (racemic) [Example 8, (±)-5-Cyclopropyl-4-(4,7-cis)-octahydro-pyrrolo[3,4-b]pvridin-1-yl-2-(2-trifluoromethyl-1H-pyrrolo[2,3-b]pyridin-4-yl)-pyrido[3,4-d]pyrimidine] | < 100 nM |
| FC(F)(F)c1cc2c(-c3nc(N4CC[C@H]5NCC[C@H]54)c4c(C5CC5)cncc4n3)ccnc2[nH]1 (racemic) [Example 19, (±)-5-Cyclopropyl-4-(3,6-cis)-hexahydro-pyrrolo[3,2-b]pyrrol-1-yl-2-(2-trifluoromethyl-1H-pyrrolo[2,3-b]pyridin-4-yl)-pyrido[3,4-d]pyrimidine] | < 100 nM |
| Clc1ccccc1-c1cc2c(-c3nc(N4CC[C@@H]5CNCC[C@@H]54)c4c(C5CC5)cncc4n3)ccnc2[nH]1 (racemic) [Example 27, (±)-2-[2-(2-Chloro-phenyl)-1H-pyrrolo[2,3-b]pyridin-4-yl]-5-cyclopropyl-4-(3aR,7aS)-octahydro-pyrrolo[3,2-c]pyridin-1-yl-pyrido[3,4-d]pyrimidine] | < 100 nM |
| CC(C)(C)c1nc(-c2cc3c(-c4nc(N5CC[C@H]6NCC[C@H]65)c5c(C6CC6)cncc5n4)ccnc3[nH]2)cs1 (racemic) [Example 34, (±)-2-[2-(2-tert-Butyl-thiazol-4-yl)-1H-pyrrolo[2,3-b]pyridin-4-yl]-5-cyclopropyl-4-(3,6-cis)-hexahydro-pyrrolo[3,2-b]pyrrol-1-yl-pyrido[3,4-d]pyrimidine] | < 100 nM |
| FC(F)(F)c1cc2c(-c3nc(N4CC[C@H]5NCC[C@H]54)c4c(C5CCC5)cncc4n3)ccnc2[nH]1 (racemic) [Example 54, (±)-5-Cyclobutyl-4-(3,6-cis)-hexahydro-pyrrolo[3,2-b]pyrrol-1-yl-2-(2-trifluoromethyl-1H-pyrrolo[2,3-b]pyridin-4-yl)-pyrido[3,4-d]pyrimidine] | < 100 nM |
| Fc1cccnc1-c1cc2c(-c3nc(N4CC[C@H]5NCC[C@H]54)c4c(C5CC5)cncc4n3)ccnc2[nH]1 (racemic) [Example 56, (±)-5-Cyclopropyl-2-[2-(3-fluoro-pyridin-2-yl)-1H-pyrrolo[2,3-b]pyridin-4-yl]-4-(3,6- cis)-hexahydro-pyrrolo[3,2-b]pyrrol-1-yl-pyrido[3,4-d]pyrimidine] | < 100 nM |
| Fc1cccnc1-c1cc2c(-c3nc(N4CC[C@H]5NCC[C@H]54)c4c(C5CCC5)cncc4n3)ccnc2[nH]1 (racemic) [Example 57, (±)-5-Cyclobutyl-2-[2-(3-fluoro-pyridin-2-yl)-1H-pyrrolo[2,3-b]pyridin-4-yl]-4-(3,6- cis)-hexahydro-pyrrolo[3,2-b]pyrrol-1-yl-pyrido[3,4-d]pyrimidine] | < 100 nM |
| FC(F)(F)c1cc2c(-c3nc(N4CC[C@H]5NCCC[C@H]54)c4c(C5CC5)cncc4n3)ccnc2[nH]1 (racemic) [Example 63, (±)-5-Cyclopropyl-4-(3,7-cis)-octahydro-pyrrolo[3,2-b]pyridin-1-yl-2-(2-trifluoromethyl-1H-pyrrolo[2,3-b]pyridin-4-yl)-pyrido[3,4-d]pyrimidine] | < 100 nM |
| O[C@]12CCN(c3nc(-c4ccnc5[nH]c6ccccc6c45)nc4cncc(C5CCC5)c34)[C@H]1CCNC2 (racemic) [Example 76, (±)-(3aS,7aS)-1-[5-Cyclobutyl-2-(9H-pyrido[2,3-b]indol-4-yl)-pyrido[3,4-d]pyrimidin-4-yl]-octahydro-pyrrolo[3,2-c]pyridin-3a-ol] | < 100 nM |
| CN(c1nc(-c2ccnc3[nH]c4ccccc4c23)nc2cncc(C3CCC3)c12)[C@@H]1CCNC[C@@]1(C)O (racemic) [Example 77, (±)-(3,4-trans)-4-{[5-Cyclobutyl-2-(9H-pyrido[2,3-b]indol-4-yl)-pyrido[3,4-d]pyrimidin-4-yl]-methyl-amino}-3-methyl-piperidin-3-ol] | < 100 nM |
| FC(F)(F)c1cc2c(-c3nc(N4CC[C@H]5NCCC[C@H]54)c4c(C5CCC5)cncc4n3)ccnc2[nH]1 (racemic) [Example 80, (±)-5-Cyclobutyl-4-(3,7-cis)-octahydro-pyrrolo[3,2-b]pyridin-1-yl-2-(2-trifluoromethyl-1H-pyrrolo[2,3-b]pyridin-4-yl)-pyrido[3,4-d]pyrimidine] | < 100 nM |
| FC(F)(F)c1cc2c(-c3nc(N4CCCC5NCCCC54)c4c(C5CCC5)cncc4n3)ccnc2[nH]1 (racemic) [Example 81, 5-Cyclobutyl-4-(octahydro-[1,5]naphthyridin-1-yl)-2-(2-trifluoromethyl-1H-pyrrolo[2,3-b]pyridin-4-yl)-pyrido[3,4-d]pyrimidine] | < 100 nM |
| Cc1cc2c(-c3nc(N4CC[C@H]5NCC[C@H]54)c4c(C5CC5)cncc4n3)ccnc2[nH]1 (racemic) [Example 82, (±)-5-Cyclopropyl-4-(3,6-cis)-hexahydro-pyrrolo[3,2-b]pyrrol-1-yl-2-(2-methyl-1H-pyrrolo[2,3-b]pyridin-4-yl)-pyrido[3,4-d]pyrimidine] | < 100 nM |
| Cc1cc2c(-c3nc(N4CC[C@H]5NCCC[C@H]54)c4c(C5CC5)cncc4n3)ccnc2[nH]1 (racemic) [Example 83, (±)-5-Cyclopropyl-2-(2-methyl-1H-pyrrolo[2,3-b]pyridin-4-yl)-4-(3,7-cis)-octahydro-pyrrolo [3,2-b]pyridin-1-yl-pyrido[3,4-d]pyrimidine] | < 100 nM |
| Cc1cc2c(-c3nc(N4CC[C@H]5NCC[C@H]54)c4c(C5CCC5)cncc4n3)ccnc2[nH]1 (racemic) [Example 84, (±)-5-Cyclobutyl-4-(3,6-cis)-hexahydro-pyrrolo[3,2-b]pyrrol-1-yl-2-(2-methyl-1H-pyrrolo[2,3-b]pyridin-4-yl)-pyrido[3,4-d]pyrimidine] | < 100 nM |
| Cc1cc2c(-c3nc(N4CC[C@H]5NCCC[C@H]54)c4c(C5CCC5)cncc4n3)ccnc2[nH]1 (racemic) [Example 85, (±)-5-Cyclobutyl-2-(2-methyl-1H-pyrrolo[2,3-b]pyridin-4-yl)-4-(3,7-cis)-octahydro-pyrrolo [3,2-b]pyridin-1-yl-pyrido[3,4-d]pyrimidine] | < 100 nM |
| O[C@]12CCN(c3nc(-c4ccnc5[nH]c(C(F)(F)F)cc45)nc4cncc(C5CC5)c34)[C@H]1CCNC2 (racemic) [Example 104, (±)-(3aS,7aS)-1-[5-Cyclopropyl-2-(2-trifluoromethyl-1H-pyrrolo[2,3-b]pyridin-4-yl)-pyrido[3,4-d]pyrimidin-4-yl]-octahydro-pyrrolo [3,2-c]pyridin-3a-ol] | < 100 nM |
